From article PMC3856890 (Nature methods, 2013)

Molecular target: T1, Pdp (pyrimidine-nucleoside phosphorylase) (Mycoplasmoides genitalium, UniProt P47297)
T1 sequence (P47297 1-421): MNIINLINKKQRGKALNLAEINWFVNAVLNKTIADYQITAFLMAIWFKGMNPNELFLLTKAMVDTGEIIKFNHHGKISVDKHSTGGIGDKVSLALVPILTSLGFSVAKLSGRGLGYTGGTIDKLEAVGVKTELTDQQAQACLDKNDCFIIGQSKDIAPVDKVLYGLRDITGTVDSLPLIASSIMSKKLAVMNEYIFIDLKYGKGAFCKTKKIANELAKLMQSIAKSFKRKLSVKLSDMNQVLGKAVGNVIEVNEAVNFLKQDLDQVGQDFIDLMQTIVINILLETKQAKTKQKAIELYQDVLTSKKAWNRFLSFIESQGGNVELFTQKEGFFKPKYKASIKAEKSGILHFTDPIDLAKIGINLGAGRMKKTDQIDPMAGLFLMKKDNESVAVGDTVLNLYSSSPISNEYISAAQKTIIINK
Test: uracil production at […] nm after NaOH stop
Format: biochemical
Conditions: 1.25-12.5 mM deoxyuridine; 10 mM phosphate; 10 mM Tris pH 7.3; 1 mM EDTA; 37 C

- uracil production at 290 nm after NaOH stop: We determined uracil production by A290.
Compound: O=c1cc[nH]c(=O)[nH]1 [uracil]
